Measured values: patent EP2518500A1, “In vitro method for determining developmental toxicity of a compound” (priority 2011, dated 2012)
Read-outs that look alike come from different tables or passages of the source.

Assays:
[1] = tested on: cyp26a1; assay: Microarray gene expression in zebrafish embryos exposed to compound, cyp26a1; conditions: 24 hpf; embryos exposed at BMCGMS20 (PAA equimolar to MAA and EAA); relative to DMSO-exposed control; negative = downregulation, positive = upregulation
[2] = tested on: vmhc; assay: Microarray gene expression in zebrafish embryos exposed to compound, vmhc; conditions: 24 hpf; embryos exposed at BMCGMS20 (PAA equimolar to MAA and EAA); relative to DMSO-exposed control; negative = downregulation, positive = upregulation
[3] = tested on: zebrafish embryos; assay: Method of the invention: developmental toxicity from expression of the 4 genes in exposed zebrafish embryos; conditions: for fold ratio (FR) (either up- or downregulated): all 4 genes (cyp26a1, si:rp71-39b20.7, vmhc, hspb12), 24 hpf microarray, compound versus DMSO control
[4] = tested on: hspb12; assay: Microarray gene expression in zebrafish embryos exposed to compound, hspb12; conditions: 24 hpf; embryos exposed at BMCGMS20 (PAA equimolar to MAA and EAA); relative to DMSO-exposed control; negative = downregulation, positive = upregulation
[5] = tested on: si:rp71-39b20.7; assay: Microarray gene expression in zebrafish embryos exposed to compound, si:rp71-39b20.7; conditions: 24 hpf; embryos exposed at BMCGMS20 (PAA equimolar to MAA and EAA); relative to DMSO-exposed control; negative = downregulation, positive = upregulation
[6] = tested on: zebrafish embryos; conditions: zebrafish (Danio rerio), in vivo, 24 hpf
[7] = tested on: vmhc; conditions: zebrafish (Danio rerio), in vivo, 24 hpf
[8] = tested on: hspb12; conditions: zebrafish (Danio rerio), in vivo, 24 hpf
[9] = tested on: cyp26a1; conditions: zebrafish (Danio rerio), in vivo, 24 hpf
[10] = tested on: si:rp71-39b20.7; conditions: zebrafish (Danio rerio), in vivo, 24 hpf
[11] = tested on: zebrafish embryos; conditions: concentration range, three independent runs, evaluated at 72 hpf; previous study [11]; cited from earlier work

Row | SMILES | Fold ratio (FR) cyp26a1 [1] | Fold ratio (FR) vmhc [2] | fold ratio (FR) (either up- or downregulated) [3] | Fold ratio (FR) hspb12 [4] | Fold ratio (FR) si:rp71-39b20.7 [5] | fold ratio (FR) (either up- or downregulated) [6] | Fold ratio (FR) vmhc [7] | Fold ratio (FR) hspb12 [8] | Fold ratio (FR) cyp26a1 [9] | Fold ratio (FR) si:rp71-39b20.7 [10] | developmental toxicity classification in the method according to the invention ([3]; gene expression in zebrafish embryos, 24 hours after fertilization) | effects in the ZET (GMS) [11]
1 | CC(C1CC1)C(O)(Cn1cncn1)c1ccc(Cl)cc1 (stereo not drawn) [CYP, cyproconazole] | 3.745 | -1.759 | > 1.5 | -1.531 | -1.544 |  |  |  |  |  |  | 
2 | CCOCC(=O)O [EAA, ethoxyacetic acid] | 2.648 | -4.629 | > 1.5 | -16.913 | -2.183 |  |  |  |  |  |  | 
3 | C[Si](Cn1cncn1)(c1ccc(F)cc1)c1ccc(F)cc1 [FLU, flusilazole] | 3.452 | -1.784 | > 1.5 | -2.182 | -1.514 |  |  |  |  |  |  | 
4 | COCC(=O)O [MAA, methoxyacetic acid] |  |  |  |  |  | > 1.5 | -2.946 | -3.449 | 1.722 | -1.996 |  | 
5 | O=C(O)COc1ccccc1 [PAA, phenoxyacetic acid] | -1.009 | -1.102 | < 1.2 | -1.135 | -1.098 |  |  |  |  |  | non-developmentally toxic | no effects
